# Molecular target: human liver cathepsin B (Homo sapiens (Human), UniProt P07858)
# Test: Linker-payload cleavage in Cathepsin B assay
# Type: biochemical
# Conditions: for Conversion rate (%): Mean
# Method: The linker-payloads were tested in a Cathepsin B assay. After 4 hr incubation in Cathepsin B (CapB) with and without CapB inhibitor ([…]), both linker-payloads and free payload were evaluated using LC-MS/MS.
# The CapB assay procedure follows: Linker-payload stock solution (10 mM in DMSO) was spiked into incubation buffer (100 mM NaOAc, 10 mM dithiothreitol, pH5) to obtain a 50 μM substrate solution. 4 μL of 0.47 μg/μL human liver cathepsin B (Athens Research & Technology, Athens, GA) in 50 mM NaOAc, 1 mM EDTA, pH 5 was added into 196 μL of 50 μM substrate solution. The reaction mixture was incubated at 37° C. for 4 hr. Then 5 μL of acetic acid and 150 μL of acetonitrile (containing osalmid as internal standard) were added to 50/Th of reaction mixture aliquots. After vortexing, the quenched samples were frozen in a −70° C. deep freezer, followed by thawing and centrifugation at 14,000 rpm.
# The CapB assay experiment included the following procedure. • 1. Preheat assay buffer: 0.1 M NaOAc/0.01 M DTT (pH 5.0) • 2. Spiking solutions for test compounds: 25 μM Spiking solutions for test compounds: Add […], of 5 mM stock solution into 398 μL of 0.1 M NaOAc/0.01 M DTT buffer (pH 5.0). • 3. Prepare 0.47m/μL Cathepsin B in 50 mM NaOAc/1 mM EDTA (pH 5.0). Put on ice. • 4. Without CA074 samples: Add […], of 0.47m/μL Cathepsin B into 196 μL of 25 μM Spiking solutions (from step 2), incubate the tubes at 37° C. • 5. With CA074 samples: Add 4 μL of 0.47m/μL Cathepsin B with 4 μL of 10 mM Inhibitor (CA074) into 196 μL of 25 μM Spiking solutions (from step 2), incubate the tubes at 37° C. • 6. After 4 hours, Aliquots of 5 μL (with CA074 and without CA074) were taken for enzyme activity test (step 15-17). Meanwhile, Aliquots of 50 μL were taken at the time point (4 h), adding 5 μL of acetic acid, and then add 150 μL of ACN (IS) to stop the reaction. • 7. After quenching, shake the plate and centrifuge them at 14000 rpm. • 8. Transfer 50 μL of the supernatant from each well into a 96-well sample plate containing 50 μL of ultra pure water (Millipore, ZMQS50F01) for LC/MS analysis.
# The CapB assay experiment included the reference compounds and the following procedure. • 9. Preheat assay buffer: 100 mM Na/K phosphate, pH6.0, with 1.33 mM EDTA and 2 mM DTT. • 10. Prepare 0.024m/μL Cathepsin B: Add […] of 0.47 μg/μL Cathepsin B stock into 19 μL of assay buffer (from step 11). • 11. Add 2 μL of 0.024m/μL Cathepsin B (from step 12) to a opaque 96-well plate. • 12. Add 96 μL of assay buffer to each sample. • 13. Add 2 μL of the 10 mM substrate Z—RR-MNA(200 μM final concentration). • For negative control (with inhibitor), add 2 μL of 10 mM Inhibitor (CA074). • 14. Immediately read the samples in a kinetic mode at excitation of 340 nm/emission of 425 nm (Read the plate every 30 Second for 3 min).
# Stability of Cathepsin B in incubation samples: • 15. Take Take 5 μL of incubation samples into 93 μL of assay buffer (from step 11), and then add 2 μL of 10 mM substrate (Z—RR-MNA). • 16. Incubate the samples at 37° C. for 2 min. • 17. Read the samples at excitation of 340 nm/emission of 425 nm.
# [1] = with CA074 (Cathepsin B inhibitor), 4 hr incubation
# [2] = without CA074, 4 hr incubation with Cathepsin B
SMILES,Conversion rate (%) [1],Conversion rate (%) [2],"Cleavage by Cathepsin B and payload release (4 hr incubation, LC-MS/MS)"
CCCC1O[C@@H]2C[C@H]3[C@@H]4C[C@H](F)C5=CC(=O)C=C[C@]5(C)[C@@]4(F)[C@@H](O)C[C@]3(C)[C@]2(C(=O)CNC(=O)OCc2ccc(NC(=O)[C@H](CCCNC(N)=O)NC(=O)[C@@H](NC(=O)CCOCCOCCOCCOCCNC(=O)CCC(=O)N3Cc4ccccc4C#Cc4ccccc43)C(C)C)cc2)O1 (stereo partly drawn) [LP112],<1.00%,20.8%,–
CCCC1O[C@@H]2C[C@H]3[C@@H]4C[C@H](F)C5=CC(=O)C=C[C@]5(C)[C@@]4(F)[C@@H](O)C[C@]3(C)[C@]2(C(=O)CNC(=O)OCc2ccc(NC(=O)[C@H](CCCNC(N)=O)NC(=O)[C@@H](NC(=O)[C@@H](CCCCNC(=O)COC3CCCCCc4c3nnn4CC3OC4OC5C(CO)OC(OC6C(CO)OC(OC7C(CO)OC(OC8C(CO)OC(OC9C(CO)OC(OC3C(O)C4O)C(O)C9O)C(O)C8O)C(O)C7O)C(O)C6O)C(O)C5O)NC(=O)CCOCCOCCOCCOCCNC(=O)CCC(=O)N3Cc4ccccc4C#Cc4ccccc43)C(C)C)cc2)O1 (stereo partly drawn) [LP104],<1.00%,29.0%,could be cleaved by CapB and released more payload (4b)
CCCC1O[C@@H]2C[C@H]3[C@@H]4C[C@H](F)C5=CC(=O)C=C[C@]5(C)[C@@]4(F)[C@@H](O)C[C@]3(C)[C@]2(C(=O)COc2ccc(NC(=O)OCc3ccc(NC(=O)[C@H](CCCNC(N)=O)NC(=O)[C@@H](NC(=O)CCOCCOCCOCCOCCNC(=O)CCC(=O)N4Cc5ccccc5C#Cc5ccccc54)C(C)C)cc3)cc2)O1 (stereo partly drawn) [LP116],<1.00%,–,–
CCCC1O[C@@H]2C[C@H]3[C@@H]4C[C@H](F)C5=CC(=O)C=C[C@]5(C)[C@@]4(F)[C@@H](O)C[C@]3(C)[C@]2(C(=O)CNC(=O)OCc2ccc(NC(=O)[C@H](CCCNC(N)=O)NC(=O)[C@@H](NC(=O)[C@@H](N)CCCCNC(=O)COC3C#CCCCCC3)C(C)C)cc2)O1 (stereo partly drawn) [LP101],<1.00%,48.20%,–
CCCC1O[C@@H]2C[C@H]3[C@@H]4C[C@H](F)C5=CC(=O)C=C[C@]5(C)[C@@]4(F)[C@@H](O)C[C@]3(C)[C@]2(C(=O)COc2ccc(NC(=O)[C@H](C)NC(=O)[C@@H](NC(=O)[C@@H](N)CCCCNC(=O)COC3C#CCCCCC3)C(C)C)cc2)O1 (stereo partly drawn) [LP102],<1.00%,22.72%,–
CCCC1O[C@@H]2C[C@H]3[C@@H]4C[C@H](F)C5=CC(=O)C=C[C@]5(C)[C@@]4(F)[C@@H](O)C[C@]3(C)[C@]2(C(=O)COc2ccc(NC(=O)OCc3ccc(NC(=O)[C@H](CCCNC(N)=O)NC(=O)[C@@H](NC(=O)[C@@H](N)CCCCNC(=O)COC4C#CCCCCC4)C(C)C)cc3)cc2)O1 (stereo partly drawn) [LP103],<1.00%,29.0%,–

# — US11760775B2, “Steroids and protein-conjugates thereof” (Regeneron Pharmaceuticals, Inc., priority 2016, dated 2023)
